In patent publication US10442807B2, “Aryl substituted bicyclic compounds as herbicides” (FMC Corporation, priority 2015, dated 2019):

Key:
Assay type in all cases: in vivo
[1] = system: barnyardgrass (Echinochloa crus-galli); experiment: Test A preemergence, directed soil spray, visual injury rating; details: approx. 10 d, 0 = no effect, 100 = complete control
Excerpt: (§1) Seeds of plant species selected from barnyardgrass (Echinochloa crus-galli), kochia (Kochia scoparia), ragweed (common ragweed, Ambrosia elation), ryegrass, Italian (Italian ryegrass, Lolium multiflorum), foxtail, giant (giant foxtail, Setaria faberii), and pigweed (Amaranthus retroflexus), were planted into a blend of loam soil and sand and treated preemergence with a directed soil spray using test chemicals formulated in a non-phytotoxic solvent mixture which included a surfactant. At the same time, plants selected from these weed species and also blackgrass (Alopecurus myosuroides), galium (catchweed bedstraw, Galium aparine), wheat (Triticum aestivum), and corn (Zea mays) were planted in pots containing the same blend of loam soil and sand and treated with postemergence applications of test chemicals formulated in the same manner. Plants ranged in height from 2 to 10 cm and were in the one- to two-leaf stage for the postemergence treatment. Treated plants and untreated controls were maintained in a greenhouse for approximately 10 d, after which time all treated plants were compared to untreated controls and visually evaluated for injury. Plant response ratings, summarized in Table A, are based on a 0 to 100 scale where 0 is no effect and 100 is complete control. A dash (-) response means no test result.

[2] = system: foxtail, giant (giant foxtail, Setaria faberii); experiment: as above; details: approx. 10 d, 0 = no effect, 100 = complete control
Excerpt: as §1

kochia (Kochia scoparia) [3] = experiment: as above; details: approx. 10 d, 0 = no effect, 100 = complete control
Excerpt: as §1

[4] = system: pigweed (Amaranthus retroflexus); experiment: as above; details: approx. 10 d, 0 = no effect, 100 = complete control
Excerpt: as §1

[5] = system: ragweed (common ragweed, Ambrosia elation); experiment: as above; details: approx. 10 d, 0 = no effect, 100 = complete control
Excerpt: as §1

[6] = system: ryegrass, Italian (Italian ryegrass, Lolium multiflorum); experiment: as above; details: approx. 10 d, 0 = no effect, 100 = complete control
Excerpt: as §1

[7] = system: barnyardgrass (Echinochloa crus-galli); experiment: Test A postemergence application, visual injury rating; details: approx. 10 d, 0 = no effect, 100 = complete control
Excerpt: as §1

[8] = system: blackgrass (Alopecurus myosuroides); experiment: as above; details: approx. 10 d, 0 = no effect, 100 = complete control
Excerpt: as §1

corn (Zea mays) = experiment: as above; details: approx. 10 d, 0 = no effect, 100 = complete control
Excerpt: as §1

[9] = system: foxtail, giant (giant foxtail, Setaria faberii); experiment: as above; details: approx. 10 d, 0 = no effect, 100 = complete control
Excerpt: as §1

[10] = system: galium (catchweed bedstraw, Galium aparine); experiment: as above; details: approx. 10 d, 0 = no effect, 100 = complete control
Excerpt: as §1

kochia (Kochia scoparia) [11] = experiment: as above; details: approx. 10 d, 0 = no effect, 100 = complete control
Excerpt: as §1

[12] = system: pigweed (Amaranthus retroflexus); experiment: as above; details: approx. 10 d, 0 = no effect, 100 = complete control
Excerpt: as §1

[13] = system: ragweed (common ragweed, Ambrosia elation); experiment: as above; details: approx. 10 d, 0 = no effect, 100 = complete control
Excerpt: as §1

[14] = system: ryegrass, Italian (Italian ryegrass, Lolium multiflorum); experiment: as above; details: approx. 10 d, 0 = no effect, 100 = complete control
Excerpt: as §1

[15] = system: wheat (Triticum aestivum); experiment: as above; details: approx. 10 d, 0 = no effect, 100 = complete control
Excerpt: as §1

[16] = system: barnyardgrass (Echinochloa crus-galli); experiment: Test B flooded paddy test, visual plant response rating; details: 250 g ai/ha; applied to paddy water at 2-leaf stage; rated after 13 to 15 days; scale 0 to 100, 0 is no effect, 100 is complete control
Excerpt: (§2) At time of treatment, test pots were flooded to 3 cm above the soil surface, treated by application of test compounds directly to the paddy water, and then maintained at that water depth for the duration of the test. Treated plants and controls were maintained in a greenhouse for 13 to 15 days, after which time all species were compared to controls and visually evaluated. Plant response ratings, summarized in Table B, are based on a scale of 0 to 100 where 0 is no effect and 100 is complete control. A dash (-) response means no test result.

[17] = system: ducksalad (Heteranthera limosa); experiment: as above; details: 250 g ai/ha; applied to paddy water at 2-leaf stage; rated after 13 to 15 days; scale 0 to 100, 0 is no effect, 100 is complete control
Excerpt: as §2

rice (Oryza sativa) = experiment: as above; details: 250 g ai/ha; applied to paddy water at 2-leaf stage; rated after 13 to 15 days; scale 0 to 100, 0 is no effect, 100 is complete control
Excerpt: as §2

[18] = system: sedge, umbrella (small-flower umbrella sedge, Cyperus difformis); experiment: as above; details: 250 g ai/ha; applied to paddy water at 2-leaf stage; rated after 13 to 15 days; scale 0 to 100, 0 is no effect, 100 is complete control
Excerpt: as §2

| SMILES | Barnyardgrass plant response rating (0 to 100 scale) ([1]; 125 g ai/ha) | Barnyardgrass plant response rating (0 to 100 scale) ([1]; 500 g ai/ha) | Foxtail, Giant plant response rating (0 to 100 scale) ([2]; 125 g ai/ha) | Foxtail, Giant plant response rating (0 to 100 scale) ([2]; 500 g ai/ha) | Kochia plant response rating (0 to 100 scale) (kochia (Kochia scoparia) [3]; 125 g ai/ha) | Pigweed plant response rating (0 to 100 scale) ([4]; 125 g ai/ha) | Pigweed plant response rating (0 to 100 scale) ([4]; 500 g ai/ha) | Ragweed plant response rating (0 to 100 scale) ([5]; 125 g ai/ha) | Ragweed plant response rating (0 to 100 scale) ([5]; 500 g ai/ha) | Ryegrass, Italian plant response rating (0 to 100 scale) ([6]; 125 g ai/ha) | Ryegrass, Italian plant response rating (0 to 100 scale) ([6]; 500 g ai/ha) | Barnyardgrass plant response rating (0 to 100 scale) ([7]; 125 g ai/ha) | Barnyardgrass plant response rating (0 to 100 scale) ([7]; 500 g ai/ha) | Blackgrass plant response rating (0 to 100 scale) ([8]; 125 g ai/ha) | Blackgrass plant response rating (0 to 100 scale) ([8]; 500 g ai/ha) | Corn plant response rating (0 to 100 scale) (corn (Zea mays); 125 g ai/ha) | Corn plant response rating (0 to 100 scale) (corn (Zea mays); 500 g ai/ha) | Foxtail, Giant plant response rating (0 to 100 scale) ([9]; 125 g ai/ha) | Foxtail, Giant plant response rating (0 to 100 scale) ([9]; 500 g ai/ha) | Galium plant response rating (0 to 100 scale) ([10]; 125 g ai/ha) | also measured |
| --- | --- | --- | --- | --- | --- | --- | --- | --- | --- | --- | --- | --- | --- | --- | --- | --- | --- | --- | --- | --- | --- |
| Cc1nnc2n1CC(c1ccc(Cl)cc1)C2C(=O)Nc1cccc(F)c1F (centres unmarked) [Compound 5] | 30 | 80 | 50 | 90 | 0 | 0 | 0 | 0 | 40 | 20 | 30 | 20 | 80 | 0 | 20 | 20 | 30 | 30 | 80 | 40 | Kochia plant response rating (0 to 100 scale) (kochia (Kochia scoparia) [3]; 500 g ai/ha): 50; Galium plant response rating (0 to 100 scale) ([10]; 500 g ai/ha): 70; Kochia plant response rating (0 to 100 scale) (kochia (Kochia scoparia) [11]; 125 g ai/ha): 0; Kochia plant response rating (0 to 100 scale) (kochia (Kochia scoparia) [11]; 500 g ai/ha): 30; Pigweed plant response rating (0 to 100 scale) ([12]; 125 g ai/ha): 0; Pigweed plant response rating (0 to 100 scale) ([12]; 500 g ai/ha): 20; Ragweed plant response rating (0 to 100 scale) ([13]; 125 g ai/ha): 0; Ragweed plant response rating (0 to 100 scale) ([13]; 500 g ai/ha): 20; Ryegrass, Italian plant response rating (0 to 100 scale) ([14]; 125 g ai/ha): 0; Ryegrass, Italian plant response rating (0 to 100 scale) ([14]; 500 g ai/ha): 20; Wheat plant response rating (0 to 100 scale) ([15]; 125 g ai/ha): 0; Wheat plant response rating (0 to 100 scale) ([15]; 500 g ai/ha): 20; Plant response rating, Flood, Barnyardgrass [16]: 40; Plant response rating, Flood, Ducksalad [17]: 20; Plant response rating, Flood, Rice (rice (Oryza sativa)): 0; Plant response rating, Flood, Sedge, Umbrella [18]: 0 |
| Cc1nnc2n1CC(c1ccc(C(F)(F)F)cc1)C2C(=O)Nc1ccccc1C(F)(F)F (centres unmarked) [Compound 6] | 0 | 40 | 0 | 90 | 0 | 0 | 40 | 0 | 0 | 40 | 60 | 0 | 40 | 0 | 20 | 0 | 0 | 0 | 30 | 0 | Kochia plant response rating (0 to 100 scale) (kochia (Kochia scoparia) [3]; 500 g ai/ha): 0; Galium plant response rating (0 to 100 scale) ([10]; 500 g ai/ha): 30; Kochia plant response rating (0 to 100 scale) (kochia (Kochia scoparia) [11]; 125 g ai/ha): 0; Kochia plant response rating (0 to 100 scale) (kochia (Kochia scoparia) [11]; 500 g ai/ha): 0; Pigweed plant response rating (0 to 100 scale) ([12]; 125 g ai/ha): 0; Pigweed plant response rating (0 to 100 scale) ([12]; 500 g ai/ha): 0; Ragweed plant response rating (0 to 100 scale) ([13]; 125 g ai/ha): 0; Ragweed plant response rating (0 to 100 scale) ([13]; 500 g ai/ha): 0; Ryegrass, Italian plant response rating (0 to 100 scale) ([14]; 125 g ai/ha): 0; Ryegrass, Italian plant response rating (0 to 100 scale) ([14]; 500 g ai/ha): 20; Wheat plant response rating (0 to 100 scale) ([15]; 125 g ai/ha): 0; Wheat plant response rating (0 to 100 scale) ([15]; 500 g ai/ha): 0; Plant response rating, Flood, Barnyardgrass [16]: 0; Plant response rating, Flood, Ducksalad [17]: 0; Plant response rating, Flood, Rice (rice (Oryza sativa)): 0; Plant response rating, Flood, Sedge, Umbrella [18]: 0 |
| O=C(Nc1cccc(F)c1F)C1c2nncn2CC1c1ccc(Cl)cc1 (centres unmarked) [Compound 7] | 30 | 70 | 40 | 80 | 0 | 0 | 20 | 0 | 50 | 0 | 0 | 20 | 70 | 0 | 0 | 20 | 30 | 20 | 70 | 40 | Kochia plant response rating (0 to 100 scale) (kochia (Kochia scoparia) [3]; 500 g ai/ha): 40; Galium plant response rating (0 to 100 scale) ([10]; 500 g ai/ha): 50; Kochia plant response rating (0 to 100 scale) (kochia (Kochia scoparia) [11]; 125 g ai/ha): 0; Kochia plant response rating (0 to 100 scale) (kochia (Kochia scoparia) [11]; 500 g ai/ha): 40; Pigweed plant response rating (0 to 100 scale) ([12]; 125 g ai/ha): 0; Pigweed plant response rating (0 to 100 scale) ([12]; 500 g ai/ha): 50; Ragweed plant response rating (0 to 100 scale) ([13]; 125 g ai/ha): 0; Ragweed plant response rating (0 to 100 scale) ([13]; 500 g ai/ha): 60; Ryegrass, Italian plant response rating (0 to 100 scale) ([14]; 125 g ai/ha): 0; Ryegrass, Italian plant response rating (0 to 100 scale) ([14]; 500 g ai/ha): 20; Wheat plant response rating (0 to 100 scale) ([15]; 125 g ai/ha): 0; Wheat plant response rating (0 to 100 scale) ([15]; 500 g ai/ha): 20; Plant response rating, Flood, Barnyardgrass [16]: 0; Plant response rating, Flood, Ducksalad [17]: 50; Plant response rating, Flood, Rice (rice (Oryza sativa)): 15; Plant response rating, Flood, Sedge, Umbrella [18]: 0 |
| CCc1nnc2n1CC(c1ccc(C(F)(F)F)cc1)C2C(=O)Nc1cccc(F)c1F (centres unmarked) [Compound 8, N-(2,3-difluorophenyl)-3-ethyl-6,7-dihydro-6-[4-(trifluoromethyl)phenyl]-5H-pyrrolo[2,1-c]-1,2,4-triazole-7-carboxamide] | 30 | 70 | 30 | 90 | 0 | 20 | 50 | 0 | 0 | 0 | 0 | 20 | 50 | 0 | 0 | 0 | 0 | 20 | 60 | 30 | Galium plant response rating (0 to 100 scale) ([10]; 500 g ai/ha): 50; Kochia plant response rating (0 to 100 scale) (kochia (Kochia scoparia) [11]; 125 g ai/ha): 0; Kochia plant response rating (0 to 100 scale) (kochia (Kochia scoparia) [11]; 500 g ai/ha): 40; Pigweed plant response rating (0 to 100 scale) ([12]; 125 g ai/ha): 20; Pigweed plant response rating (0 to 100 scale) ([12]; 500 g ai/ha): 60; Ragweed plant response rating (0 to 100 scale) ([13]; 125 g ai/ha): 0; Ragweed plant response rating (0 to 100 scale) ([13]; 500 g ai/ha): 20; Ryegrass, Italian plant response rating (0 to 100 scale) ([14]; 125 g ai/ha): 0; Ryegrass, Italian plant response rating (0 to 100 scale) ([14]; 500 g ai/ha): 0; Wheat plant response rating (0 to 100 scale) ([15]; 125 g ai/ha): 0; Wheat plant response rating (0 to 100 scale) ([15]; 500 g ai/ha): 0; Plant response rating, Flood, Barnyardgrass [16]: 0; Plant response rating, Flood, Ducksalad [17]: 40; Plant response rating, Flood, Rice (rice (Oryza sativa)): 0; Plant response rating, Flood, Sedge, Umbrella [18]: 0 |
